Results from paper PMC8070144, “The YfkO Nitroreductase from Bacillus Licheniformis on Gold-Coated Superparamagnetic Nanoparticles: Towards a Novel Directed Enzyme Prodrug Therapy Approach” (Pharmaceutics, 2021).

Key:
YfkO-cys = tested on: T1, YfkO-cys; test: absorbance at […] nm, hydroxylamine product formation, plate reader; format: biochemical, Bacillus licheniformis; conditions: free enzyme; NADH 400 µM; 50 mM phosphate pH 7.2; 37 °C; CB1954 0.1-10 mM
T1 construct: recombinant, pET28a(+) in E. coli Rosetta BL21(DE3) (printed B21 DE3); N-terminal Cys tag and His tag kept; Ni IMAC, FMN-saturated, PD10 desalted

NfnB-cys [1] = biological target: T2, NfnB-cys (Escherichia coli, UniProt P38489); test: UV-Vis spectra with time, product at […] nm; format: biochemical; conditions: free enzyme; CB1954 100 µM; 50 mM phosphate pH 7.2; cofactor NADH in results (NADPH 300 µM in methods)
T2 construct: gene nfsB; recombinant, pET28a(+) in E. coli Rosetta BL21(DE3) (printed B21 DE3); N-terminal Cys tag and His tag kept; Ni IMAC, FMN-saturated, PD10 desalted
T2 sequence (P38489 whole entry): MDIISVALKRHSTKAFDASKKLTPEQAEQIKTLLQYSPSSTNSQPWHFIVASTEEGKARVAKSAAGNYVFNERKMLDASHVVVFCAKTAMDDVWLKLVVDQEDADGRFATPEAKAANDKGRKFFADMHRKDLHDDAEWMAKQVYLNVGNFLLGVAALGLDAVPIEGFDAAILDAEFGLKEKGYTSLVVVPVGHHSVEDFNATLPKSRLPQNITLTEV

NfnB-cys [2] = biological target: T2, NfnB-cys; test: UV-Vis spectra with time, NADH oxidation at […] nm; format: biochemical; conditions: free enzyme; CB1954 100 µM; 50 mM phosphate pH 7.2; methods print NADPH, results print NADH

| SMILES | Km (YfkO-cys) [µM] | UV-Vis spectra with time, product at 420 nm (NfnB-cys [1]) | UV-Vis spectra with time, NADH oxidation at 340 nm (NfnB-cys [2]) |
| --- | --- | --- | --- |
| NC(=O)c1cc(N2CC2)c([N+](=O)[O-])cc1[N+](=O)[O-] [compound 1, 5-(aziridin-1-yl)-2,4-dinitrobenzamide] | 830 ± 250 | scans obtained for NfnB-cys, free and immobilised, were almost identical to these | – |
| NC(=O)C1=CN([C@@H]2O[C@H](COP(=O)(O)OP(=O)(O)OC[C@H]3O[C@@H](n4cnc5c(N)ncnc54)[C@H](O)[C@@H]3O)[C@@H](O)[C@H]2O)C=CC1 [NADH] | – | – | scans obtained for NfnB-cys, free and immobilised, were almost identical to these |
